{
  "source": "patent US10022459B2",
  "about": "“Medical tissue-marker and manufacturing method for the same” (NATIONAL UNIVERSITY CORPORATION CHIBA UNIVERSITY, priority 2011, dated 2018)",
  "key": {"[1]": {"system": "submucosal layer of the stomach wall of a pig", "experiment": "Local injection into submucosal layer of the stomach wall of a pig, fluorescent laparoscope view from the outside of the stomach", "format": "in vivo", "protocol": "Then, the fabricated clusters were injected into biological tissue and the result thereof was confirmed. Specifically, submucosal layer of the stomach wall of a pig was a most suitable target of the marker administration. The fluid dispersion of 300 μl, including the clusters, was administrated on four points surrounding a metal clip placed inside the stomach by local injection.\nThe left and middle panels show conventional and fluorescent laparoscopic images immediately after local injection, respectively. […] It was confirmed that the clusters were sufficiently stable at the injection points. […] In this case, the exact injection positions were unclear immediately after injection as well as 6 hours after injection.\nHerein, the stability was again confirmed 24 hours after the local injection of the marker. The submucosal layer of the stomach wall was a most suitable target of the marker administration. The fluid dispersion of 300 μl including clusters was administrated at two points surrounding a metal clip by local injection. The pig recovered from general anesthesia after the administration. Twenty-four hours later, laparoscopy was performed again under general anesthesia.\nThe optimum injection amount of the marker was verified. When the concentration of the clusters according to the example 1 was 100 μl or more, the injection points could be confirmed. The concentration thereof was preferably 200 μl or more, and is more preferably 300 μl or more. In FIG. 17, 50 μl was used. In FIG. 18, 100 μl was used. In FIG. 19, 200 μl was used. In FIG. 20, 300 μl was used."}, "[2]": {"system": "stomach of the pig", "experiment": "Fluorescence imaging (near-infrared LED light) of the excised pig stomach after marker administration", "format": "in vivo", "conditions": "32 hours after administration, 300 μl each at four points", "protocol": "Then, the stomach of the pig was excised, and fluorescence and X-ray CT imaging was performed 32 hours after the marker (300 μl each at four points around a metal clip) administration."}},
  "data": [
    {"compound": "CC1(C)C(/C=C/C=C/C=C/C=C2\\N(CCCCS(=O)(=O)O)c3ccc4ccccc4c3C2(C)C)=[N+](CCCCS(=O)(=O)[O-])c2ccc3ccccc3c21", "note": "[ICG aqueous solution, indocyanine green]", "values": [
      {"measurement": "identification of injection points in fluorescent laparoscopic image", "setting": "[1]; 6 hours after local injection, 300 μl at four points", "value": "unclear"},
      {"measurement": "distinguishability of four closely located injection points by fluorescent laparoscope", "setting": "[1]; 18 hours after administration, 300 μl at four points", "value": "impossible to distinguish"},
      {"measurement": "identification of injection points in fluorescent laparoscopic image", "setting": "[1]; immediately after local injection", "value": "unclear"},
      {"measurement": "fluorescence pattern at the injection site", "setting": "[2]", "value": "broad diffusion of the fluorescence"}
    ]}
  ]
}
